Reference: ChEMBL document CHEMBL1152576, “E-Combretastatin and E-resveratrol structural modifications: antimicrobial and cancer cell growth inhibitory beta-E-nitrostyrenes” (Bioorg Med Chem, 2009)
Converted amounts (≈) assume the structure as drawn. The source made the active and inactive calls. No cut-off for these calls is given here.

Columns and labels:
[1] = test system: Stenotrophomonas maltophilia; test: Antimicrobial activity against Stenotrophomonas maltophilia ATCC 13637 after 24 hrs by broth microdilution susceptibility assay; assay type: functional; conditions: ATCC 13637, 24 h
[2] = test system: Cryptococcus neoformans; test: Antifungal activity against Cryptococcus neoformans ATCC 90112 after 48 hrs by broth microdilution susceptibility assay; assay type: functional; conditions: ATCC 90112, 48 h
[3] = test system: Cryptococcus neoformans; test: Antimicrobial activity against Cryptococcus neoformans ATCC 90112 assessed clear zone in inhibition per disk by CLSI disk diffusion susceptibility assay; assay type: functional
[4] = test system: Neisseria gonorrhoeae; test: Antimicrobial activity against Neisseria gonorrhoeae ATCC 49226 assessed clear zone of inhibition measured per disk by CLSI disk diffusion susceptibility assay; assay type: functional
[5] = test system: DU-145; test: Cytotoxicity against human DU145 cells after 48 hrs by sulforhodamine B assay; assay type: functional; conditions: DU-145, 48 h
[6] = test system: Escherichia coli; test: Antimicrobial activity against Escherichia coli ATCC 25922 assessed clear zone in inhibition per disk by CLSI disk diffusion susceptibility assay; assay type: functional
[7] = test system: Escherichia coli; test: Antimicrobial activity against Escherichia coli ATCC 25922 after 24 hrs by broth microdilution susceptibility assay; assay type: functional; conditions: ATCC 25922, 24 h
[8] = test system: Streptococcus pneumoniae; test: Antimicrobial activity against Streptococcus pneumoniae ATCC 6303 by broth microdilution susceptibility assay; assay type: functional
[9] = test system: Enterobacter cloacae; test: Antimicrobial activity against Enterobacter cloacae ATCC 13047 assessed clear zone in inhibition per disk by CLSI disk diffusion susceptibility assay; assay type: functional
[10] = test system: Streptococcus pneumoniae; test: Antimicrobial activity against Streptococcus pneumoniae ATCC 6303 after 24 hrs by broth microdilution susceptibility assay; assay type: functional; conditions: ATCC 6303, 24 h
[11] = test system: BXPC-3; test: Cytotoxicity against human BxPC3 cells after 48 hrs by sulforhodamine B assay; assay type: functional; conditions: BXPC-3, 48 h
[12] = test system: OVCAR-3; test: Cytotoxicity against human OVCAR-3 cells after 48 hrs by sulforhodamine B assay; assay type: functional
[13] = test system: Cryptococcus neoformans; test: Antifungal activity against Cryptococcus neoformans ATCC 90112 after 72 hrs by broth microdilution susceptibility assay; assay type: functional; conditions: ATCC 90112, 72 h
[14] = test system: KM-20L2; test: Cytotoxicity against human KM20L2 cells after 48 hrs by sulforhodamine B assay; assay type: functional; conditions: KM-20L2, 48 h
[15] = Inhibition of tubulin polymerization
[16] = test system: Micrococcus luteus; test: Antimicrobial activity against Micrococcus luteus Presque Isle 456 assessed clear zone in inhibition per disk by CLSI disk diffusion susceptibility assay; assay type: functional
[17] = test system: Staphylococcus aureus; test: Antimicrobial activity against Staphylococcus aureus ATCC 29213 after 24 hrs by broth microdilution susceptibility assay; assay type: functional; conditions: ATCC 29213, 24 h
[18] = test system: Stenotrophomonas maltophilia; test: Antimicrobial activity against Stenotrophomonas maltophilia ATCC 13637 assessed clear zone in inhibition per disk by CLSI disk diffusion susceptibility assay; assay type: functional
[19] = test system: MCF7; test: Cytotoxicity against human MCF7 cells after 48 hrs by sulforhodamine B assay; assay type: functional; conditions: MCF7, 48 h
[20] = test system: Staphylococcus aureus; test: Antimicrobial activity against Staphylococcus aureus ATCC 29213 by broth microdilution susceptibility assay; assay type: functional
[21] = test system: Streptococcus pneumoniae; test: Antimicrobial activity against Streptococcus pneumoniae ATCC 6303 assessed clear zone in inhibition per disk by CLSI disk diffusion susceptibility assay; assay type: functional
[22] = test system: Enterococcus faecalis; test: Antimicrobial activity against Enterococcus faecalis ATCC 29212 after 24 hrs by broth microdilution susceptibility assay; assay type: functional; conditions: ATCC 29212, 24 h
[23] = test system: SF-268; test: Cytotoxicity against human SF268 cells after 48 hrs by sulforhodamine B assay; assay type: functional; conditions: SF-268, 48 h
[24] = test system: Candida albicans; test: Antifungal activity against Candida albicans ATCC 90028 after 48 hrs by broth microdilution susceptibility assay; assay type: functional; conditions: ATCC 90028, 48 h
[25] = test system: P388; test: Cytotoxicity against mouse P388 cells after 48 hrs by sulforhodamine B assay; assay type: functional; conditions: P388, 48 h, read-out: ED50 (the source's name)
[26] = test system: SK-MEL-5; test: Cytotoxicity against human SK-MEL-5 cells after 48 hrs by sulforhodamine B assay; assay type: functional
[27] = test system: Enterococcus faecalis; test: Antimicrobial activity against Enterococcus faecalis ATCC 29212 assessed clear zone in inhibition per disk by CLSI disk diffusion susceptibility assay; assay type: functional
[28] = test system: NCI-H460; test: Cytotoxicity against human NCI-H460 cells after 48 hrs by sulforhodamine B assay; assay type: functional; conditions: NCI-H460, 48 h
[29] = test system: Enterobacter cloacae; test: Antimicrobial activity against Enterobacter cloacae ATCC 13047 by broth microdilution susceptibility assay; assay type: functional
[30] = test system: Escherichia coli; test: Antimicrobial activity against Escherichia coli ATCC 25922 by broth microdilution susceptibility assay; assay type: functional
[31] = test system: Candida albicans; test: Antifungal activity against Candida albicans ATCC 90028 after 24 hrs by broth microdilution susceptibility assay; assay type: functional; conditions: ATCC 90028, 24 h
[32] = test system: Stenotrophomonas maltophilia; test: Antimicrobial activity against Stenotrophomonas maltophilia ATCC 13637 by broth microdilution susceptibility assay; assay type: functional
[33] = test system: Neisseria gonorrhoeae; test: Antimicrobial activity against Neisseria gonorrhoeae ATCC 49226 by broth microdilution susceptibility assay; assay type: functional
[34] = test system: A498; test: Cytotoxicity against human A498 cells after 48 hrs by sulforhodamine B assay; assay type: functional
[35] = test system: SF-295; test: Cytotoxicity against human SF295 cells after 48 hrs by sulforhodamine B assay; assay type: functional
[36] = test system: Micrococcus luteus; test: Antimicrobial activity against Micrococcus luteus Presque Isle 456 by broth microdilution susceptibility assay; assay type: functional
[37] = test system: Neisseria gonorrhoeae; test: Antimicrobial activity against Neisseria gonorrhoeae ATCC 49226 after 24 hrs by broth microdilution susceptibility assay; assay type: functional; conditions: ATCC 49226, 24 h
[38] = test system: Staphylococcus aureus; test: Antimicrobial activity against Staphylococcus aureus ATCC 29213 assessed clear zone in inhibition per disk by CLSI disk diffusion susceptibility assay; assay type: functional
[39] = test system: Enterococcus faecalis; test: Antimicrobial activity against Enterococcus faecalis ATCC 29212 by broth microdilution susceptibility assay; assay type: functional
[40] = test system: Candida albicans; test: Antimicrobial activity against Candida albicans ATCC 90028 assessed clear zone in inhibition per disk by CLSI disk diffusion susceptibility assay; assay type: functional
[41] = test system: Micrococcus luteus; test: Antimicrobial activity against Micrococcus luteus Presque Isle 456 after 24 hrs by broth microdilution susceptibility assay; assay type: functional; conditions: Presque Isle 456, 24 h

Structure (SMILES): O=[N+]([O-])/C=C/c1ccc2c(c1)OCO2
- MBC [1]: > 64 µg/mL
- MFC [2]: 16 µg/mL (≈ 82.8 µM)
- MIC [3]: 0.78 µg
- MIC [4]: <0.78 µg
- GI50 [5]: 1.8 µg/mL (≈ 9.32 µM)
- MIC [6]: 6.25 µg
- MBC [7]: > 64 µg/mL
- MIC [8]: 16 µg/mL (≈ 82.8 µM)
- MIC [9]: 12.5 µg
- MBC [10]: 32 µg/mL (≈ 166 µM)
- GI50 [11]: 1.7 µg/mL (≈ 8.8 µM)
- GI50 [12]: inactive
- MIC [13]: 8 µg/mL (≈ 41.4 µM)
- GI50 [14]: 1.8 µg/mL (≈ 9.32 µM)
- IC50 [15]: 5.3 µM
- MIC [16]: 50 µg
- MBC [17]: > 64 µg/mL
- MIC [18]: 6.25 µg
- GI50 [19]: 0.58 µg/mL (≈ 3 µM)
- MIC [20]: 32 µg/mL (≈ 166 µM)
- MIC [21]: 0.78 µg
- MBC [22]: > 64 µg/mL
- GI50 [23]: 1.9 µg/mL (≈ 9.84 µM)
- MIC [24]: 8 µg/mL (≈ 41.4 µM)
- EC50 [25]: 2 µg/mL (≈ 10.4 µM)
- GI50 [26]: inactive
- MIC [27]: 6.25 µg
- GI50 [28]: 2 µg/mL (≈ 10.4 µM)
- MIC [29]: > 64 µg/mL
- MIC [30]: 64 µg/mL (≈ 331 µM)
- MFC [31]: 16 µg/mL (≈ 82.8 µM)
- MIC [32]: 64 µg/mL (≈ 331 µM)
- MIC [33]: 1 µg/mL (≈ 5.18 µM)
- GI50 [34]: inactive
- GI50 [35]: inactive
- MIC [36]: 64 µg/mL (≈ 331 µM)
- MBC [37]: 2 µg/mL (≈ 10.4 µM)
- MIC [38]: 6.25 µg
- MIC [39]: 64 µg/mL (≈ 331 µM)
- MIC [40]: 1.56 µg
- MBC [41]: > 64 µg/mL

Structure (SMILES): O=[N+]([O-])/C=C/c1c[nH]c2ccccc12
- MBC [1]: > 64 µg/mL
- MFC [2]: 32 µg/mL (≈ 170 µM)
- MIC [3]: 6.25 µg
- MIC [4]: 3.12 µg
- GI50 [5]: 1.3 µg/mL (≈ 6.91 µM)
- MIC [6]: 25 µg
- MIC [8]: 64 µg/mL (≈ 340 µM)
- MIC [9]: >100 µg
- MBC [10]: > 64 µg/mL
- GI50 [11]: 1.4 µg/mL (≈ 7.44 µM)
- GI50 [12]: inactive
- MIC [13]: 16 µg/mL (≈ 85 µM)
- GI50 [14]: 1.4 µg/mL (≈ 7.44 µM)
- IC50 [15]: 15 µM
- MIC [16]: 50 µg
- MBC [17]: > 64 µg/mL
- MIC [18]: 25 µg
- GI50 [19]: 0.4 µg/mL (≈ 2.13 µM)
- MIC [20]: 64 µg/mL (≈ 340 µM)
- MIC [21]: 12.5 µg
- MBC [22]: > 64 µg/mL
- GI50 [23]: 1.9 µg/mL (≈ 10.1 µM)
- MIC [24]: 32 µg/mL (≈ 170 µM)
- EC50 [25]: 3.7 µg/mL (≈ 19.7 µM)
- GI50 [26]: inactive
- MIC [27]: >100 µg
- GI50 [28]: 1.6 µg/mL (≈ 8.5 µM)
- MIC [29]: > 64 µg/mL
- MIC [30]: > 64 µg/mL
- MFC [31]: 64 µg/mL (≈ 340 µM)
- MIC [32]: 64 µg/mL (≈ 340 µM)
- MIC [33]: 8 µg/mL (≈ 42.5 µM)
- GI50 [34]: inactive
- GI50 [35]: inactive
- MIC [36]: 64 µg/mL (≈ 340 µM)
- MBC [37]: 8 µg/mL (≈ 42.5 µM)
- MIC [38]: >100 µg
- MIC [39]: 64 µg/mL (≈ 340 µM)
- MIC [40]: 12.5 µg
- MBC [41]: > 64 µg/mL

Structure (SMILES): O=[N+]([O-])/C=C/c1ccccc1O
- MFC [2]: 32 µg/mL (≈ 194 µM)
- MIC [3]: 0.78 µg
- MIC [4]: <0.78 µg
- GI50 [5]: 1 µg/mL (≈ 6.06 µM)
- MIC [6]: 25 µg
- MIC [8]: 32 µg/mL (≈ 194 µM)
- MIC [9]: 25 µg
- MBC [10]: > 64 µg/mL
- GI50 [11]: 1.1 µg/mL (≈ 6.66 µM)
- GI50 [12]: inactive
- MIC [13]: 8 µg/mL (≈ 48.4 µM)
- GI50 [14]: 1.6 µg/mL (≈ 9.69 µM)
- IC50 [15]: 4.4 µM
- MIC [16]: 25 µg
- MIC [18]: 12.5 µg
- GI50 [19]: 0.47 µg/mL (≈ 2.85 µM)
- MIC [20]: > 64 µg/mL
- MIC [21]: 1.56 µg
- GI50 [23]: 1.2 µg/mL (≈ 7.27 µM)
- MIC [24]: 16 µg/mL (≈ 96.9 µM)
- EC50 [25]: 3.5 µg/mL (≈ 21.2 µM)
- GI50 [26]: inactive
- MIC [27]: 50 µg
- GI50 [28]: 0.95 µg/mL (≈ 5.75 µM)
- MIC [29]: > 64 µg/mL
- MIC [30]: 64 µg/mL (≈ 388 µM)
- MFC [31]: 32 µg/mL (≈ 194 µM)
- MIC [32]: 32 µg/mL (≈ 194 µM)
- MIC [33]: 2 µg/mL (≈ 12.1 µM)
- GI50 [34]: inactive
- GI50 [35]: inactive
- MIC [36]: > 64 µg/mL
- MBC [37]: 2 µg/mL (≈ 12.1 µM)
- MIC [38]: 25 µg
- MIC [39]: > 64 µg/mL
- MIC [40]: 1.56 µg
